According to ChEMBL document CHEMBL1151449, “In vitro activity of DC-159a, a new broad-spectrum fluoroquinolone, compared with that of other agents against drug-susceptible and -resistant pneumococci” (2008):
In brackets after ≈: the same amount, converted by molar mass.

Key:
Type in all cases: functional
[1] = test system: Streptococcus pneumoniae; test: Antibacterial activity against penicillin-, quinolone-resistant Streptococcus pneumoniae HMC 1541 harboring mutation in L4 protein by broth microdilution method
[2] = test system: Streptococcus pneumoniae; test: Antibacterial activity against Streptococcus pneumoniae HMC 4026 harboring S81Y mutation in quinolone-resistant determining regions of GyrA gene, S79F, K137N mutation in QRDR of ParC gene and I460V mutation in QRDR of ParE gene by agar dilution method
[3] = test system: Streptococcus pneumoniae; test: (§1) Antibacterial activity against penicillin-resistant and quinolone-susceptible Streptococcus pneumoniae HMC 3583 expressing mefA and harboring I460V mutation in QRDR of ParE gene after 41 passages with gemifloxacin measured after 10 daily antibiotic-free subculturing by multi-step resistance selection technique
[4] = test system: Streptococcus pneumoniae; test: Antibacterial activity against Streptococcus pneumoniae HMC 1149 harboring S81F and S79Y mutation in quinolone-resistant determining regions of GyrA and ParC genes respectively showing efflux to ciprofloxacin, gemifloxacin by agar dilution method
[5] = test system: Streptococcus pneumoniae; test: Antibacterial activity against Streptococcus pneumoniae HMC 1055 harboring S81F mutation in quinolone-resistant determining regions of GyrA gene, S79F, K137N mutation in QRDR of ParC gene and I460V mutation in QRDR of ParE gene by agar dilution method
[6] = test system: Streptococcus pneumoniae; test: Antibacterial activity against penicillin-resistant and quinolone-susceptible Streptococcus pneumoniae HMC 3583 expressing mefA by broth microdilution method
[7] = test system: Streptococcus pneumoniae; test: Antibacterial activity against Streptococcus pneumoniae HMC 1076 harboring S81F mutation in quinolone-resistant determining regions of GyrA gene, D83N mutation in QRDR of ParC gene and I460V mutation in QRDR of ParE gene by agar dilution method
[8] = test system: Streptococcus pneumoniae; test: Antibacterial activity against Streptococcus pneumoniae HMC 2536 harboring S81Y mutation in quinolone-resistant determining regions of GyrA gene, S79F, K137N mutation in QRDR of ParC gene and I460V mutation in QRDR of ParE gene by agar dilution method
[9] = test system: Streptococcus pneumoniae; test: as §1, with “harboring S81F mutation in quinolone-resistant determining regions of GyrA gene, D83N mutation in QRDR of ParC gene and” for “harboring”, “44” for “41”, “levofloxacin” for “gemifloxacin”
[10] = test system: Streptococcus pneumoniae; test: as §1, with “228” for “3583”, “ermB” for “mefA”, “harboring S81F mutation in quinolone-resistant determining regions of GyrA gene, D83N mutation in QRDR of ParC gene and” for “harboring”, “28” for “41”, “DC-159a” for “gemifloxacin”
[11] = test system: Streptococcus pneumoniae; test: Antibacterial activity against Streptococcus pneumoniae HMC 1077 harboring S81Y and S79F mutation in quinolone-resistant determining regions of GyrA and ParC genes respectively by agar dilution method
[12] = test system: Streptococcus pneumoniae; test: Antibacterial activity against Streptococcus pneumoniae HMC 1071 harboring S81F mutation in quinolone-resistant determining regions of GyrA gene and S79F, K137N mutation in QRDR of ParC gene by agar dilution method
[13] = test system: Streptococcus pneumoniae; test: Antibacterial activity against Streptococcus pneumoniae HMC 1073 harboring S81F mutation in quinolone-resistant determining regions of GyrA gene, and I460V mutation in QRDR of ParE gene by agar dilution method
[14] = test system: Streptococcus pneumoniae; test: Antibacterial activity against macrolide-, quinolone-susceptible and penicillin-intermediate Streptococcus pneumoniae HMC 100 by broth microdilution method
[15] = test system: Streptococcus pneumoniae; test: Antibacterial activity against Streptococcus pneumoniae HMC 1156 harboring S81F and S79F mutation in quinolone-resistant determining regions of GyrA and ParC genes respectively showing efflux to ciprofloxacin, gemifloxacin by agar dilution method
[16] = test system: Streptococcus pneumoniae; test: Antibacterial activity against quinolone-resistant Streptococcus pneumoniae […] by agar dilution method
[17] = test system: Streptococcus pneumoniae; test: Antibacterial activity against Streptococcus pneumoniae HMC 1146 harboring S81F mutation in quinolone-resistant determining regions of GyrA gene, and D435N mutation in QRDR of ParE gene by agar dilution method
[18] = test system: Streptococcus pneumoniae; test: as §1, with “228” for “3583”, “ermB” for “mefA”, “harboring S81F mutation in quinolone-resistant determining regions of GyrA gene, S79Y mutation in QRDR of ParC gene and” for “harboring”, “36” for “41”, “moxifloxacin” for “gemifloxacin”
[19] = test system: Streptococcus pneumoniae; test: Antibacterial activity against Streptococcus pneumoniae HMC 1070 harboring S81F mutation in quinolone-resistant determining regions of GyrA gene, D83N mutation in QRDR of ParC gene and I460V mutation in QRDR of ParE gene by agar dilution method
[20] = test system: Streptococcus pneumoniae; test: Antibacterial activity against Streptococcus pneumoniae HMC 1541 harboring S81Y mutation in quinolone-resistant determining regions of GyrA gene, S79F, K137N mutation in QRDR of ParC gene and I460V mutation in QRDR of ParE gene by agar dilution method
[21] = test system: Streptococcus pneumoniae; test: Antibacterial activity against quinolone-susceptible and penicillin-intermediate Streptococcus pneumoniae HMC 5048 expressing mefA by broth microdilution method
[22] = test system: Streptococcus pneumoniae; test: as §1, with “228” for “3583”, “ermB” for “mefA”, “harboring S81F mutation in quinolone-resistant determining regions of GyrA gene, S79Y mutation in QRDR of ParC gene and” for “harboring”, “38” for “41”, “gatifloxacin” for “gemifloxacin”
[23] = test system: Streptococcus pneumoniae; test: (§2) Antibacterial activity against penicillin-susceptible, quinolone-resistant Streptococcus pneumoniae HMC 1072 expressing ermB and harboring S81F mutation in quinolone-resistant determining regions of GyrA gene, S79Y mutation in QRDR of ParC gene and I460V mutation in QRDR of ParE gene after 50 passages by broth microdilution method
[24] = test system: Streptococcus pneumoniae; test: Antibacterial activity against Streptococcus pneumoniae HMC 1078 harboring S81F mutation in quinolone-resistant determining regions of GyrA gene, S79F mutation in QRDR of ParC gene and I460V mutation in QRDR of ParE gene by agar dilution method
[25] = test system: Streptococcus pneumoniae; test: as §1, with “S81F mutation in quinolone-resistant determining regions of GyrA gene and I460V, D435N” for “I460V”, “46” for “41”, “gatifloxacin” for “gemifloxacin”
[26] = test system: Streptococcus pneumoniae; test: Antibacterial activity against Streptococcus pneumoniae HMC 1058 harboring S79F, K137N mutation in quinolone-resistant determining regions of ParC gene and 460V mutation in QRDR of ParE gene by agar dilution method
[27] = test system: Streptococcus pneumoniae; test: Antibacterial activity against Streptococcus pneumoniae HMC 1139 harboring S81F mutation in quinolone-resistant determining regions of GyrA gene, S79F, K137N mutation in QRDR of ParC gene and I460V mutation in QRDR of ParE gene by agar dilution method
[28] = test system: Streptococcus pneumoniae; test: Antibacterial activity against penicillin-intermediate Streptococcus pneumoniae […] by agar dilution method
[29] = test system: Streptococcus pneumoniae; test: Antibacterial activity against macrolide-, quinolone-susceptible and penicillin-intermediate Streptococcus pneumoniae HMC 100 harboring S81Y and S79Y mutation in quinolone-resistant determining regions of GyrA and ParC genes respectively after 42 passages with levofloxacin measured after 10 daily antibiotic-free subculturing by multi-step resistance selection technique
[30] = test system: Streptococcus pneumoniae; test: as §2, with “penicillin-, macrolide-susceptible and” for “penicillin-susceptible,”, “1074” for “1072 expressing ermB and”, “S79F” for “S79Y”
[31] = test system: Streptococcus pneumoniae; test: Antibacterial activity against penicillin-, macrolide- and quinolone-susceptible Streptococcus pneumoniae HMC 63 after 50 passages by broth microdilution method

SMILES	MIC [1] [µg/mL]	MIC [2] [µg/mL]	MIC [3] [µg/mL]	MIC [4] [µg/mL]	MIC [5] [µg/mL]	MIC [6] [µg/mL]	MIC [7] [µg/mL]	MIC [8] [µg/mL]	MIC [9] [µg/mL]	MIC [10] [µg/mL]	MIC [11] [µg/mL]	MIC [12] [µg/mL]	MIC [13] [µg/mL]	MIC [14] [µg/mL]	MIC [15] [µg/mL]	MIC50 [16] [µg/mL]	MIC90 [16] [µg/mL]	MIC [17] [µg/mL]	MIC [18] [µg/mL]	MIC [19] [µg/mL]	further results
CO/N=C1\CN(c2nc3c(cc2F)c(=O)c(C(=O)O)cn3C2CC2)CC1CN (centres undefined) [GEMIFLOXACIN]	0.5 (≈ 1.28 µM)	0.5 (≈ 1.28 µM)	2 (≈ 5.14 µM)	0.25 (≈ 0.642 µM)	0.5 (≈ 1.28 µM)	0.03 (≈ 0.077 µM)	0.5 (≈ 1.28 µM)	0.125 (≈ 0.321 µM)	0.25 (≈ 0.642 µM)	1 (≈ 2.57 µM)	0.25 (≈ 0.642 µM)	0.5 (≈ 1.28 µM)	0.125 (≈ 0.321 µM)	0.06 (≈ 0.154 µM)	0.1 (≈ 0.257 µM)	0.25 (≈ 0.642 µM)	1 (≈ 2.57 µM)	0.5 (≈ 1.28 µM)	2 (≈ 5.14 µM)	0.25 (≈ 0.642 µM)	MIC [20]: 0.25 µg/mL (≈ 0.642 µM); MIC [21]: 0.03 µg/mL (≈ 0.077 µM); MIC [22]: > 64 µg/mL; MIC [23]: 1 µg/mL (≈ 2.57 µM); MIC [24]: 0.5 µg/mL (≈ 1.28 µM); MIC [25]: 8 µg/mL (≈ 20.5 µM); MIC [26]: 0.125 µg/mL (≈ 0.321 µM); MIC [27]: 0.25 µg/mL (≈ 0.642 µM); MIC50 [28]: 0.03 µg/mL (≈ 0.077 µM); MIC90 [28]: 0.06 µg/mL (≈ 0.154 µM); MIC [29]: 0.5 µg/mL (≈ 1.28 µM)
COc1c(N2CC3(CC3)[C@](C)(N)C2)c(F)cc2c(=O)c(C(=O)O)cn([C@@H]3C[C@@H]3F)c12.O	1	1	1	0.25	1	0.12	0.5	1	1	1	1	1	1	0.12	1	1	1	1	1	1	MIC [30]: 1 µg/mL; MIC [31]: 0.125 µg/mL; MIC [20]: 0.5 µg/mL; MIC [21]: 0.12 µg/mL; MIC [22]: 1 µg/mL; MIC [23]: 1 µg/mL; MIC [24]: 1 µg/mL; MIC [25]: 1 µg/mL; MIC [26]: 0.5 µg/mL; MIC [27]: 1 µg/mL; MIC50 [28]: 0.12 µg/mL; MIC90 [28]: 0.12 µg/mL; MIC [29]: 1 µg/mL
